Reference: PubChem BioAssay (NCI)
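Results reflect a 48-hour exposure of cells in 96-well plates to compound at five concentrations. Abbreviation: GI50, concentration required for 50% inhibition of growth. TGI: total growth inhibition.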

What was measured:
Experiment in all cases: NCI tumour cell line growth inhibition, 48 h
RXF 393 renal = tested on: RXF 393 renal
SW-620 colon = tested on: SW-620 colon
HL-60(TB) leukemia = tested on: HL-60(TB) leukemia
HCC-2998 colon = tested on: HCC-2998 colon
NCI-H522 lung = tested on: NCI-H522 lung
HT29 colon = tested on: HT29 colon
UO-31 renal = tested on: UO-31 renal
SK-MEL-28 melanoma = tested on: SK-MEL-28 melanoma
DU-145 prostate = tested on: DU-145 prostate
T-47D breast = tested on: T-47D breast

| Compound | TGI (RXF 393 renal) | TGI (SW-620 colon) | TGI (HL-60(TB) leukemia) | TGI (HCC-2998 colon) | TGI (NCI-H522 lung) | TGI (HT29 colon) | TGI (UO-31 renal) | TGI (SK-MEL-28 melanoma) | GI50 (SW-620 colon) | GI50 (HL-60(TB) leukemia) | GI50 (DU-145 prostate) | TGI (DU-145 prostate) | GI50 (HCC-2998 colon) | GI50 (HT29 colon) | GI50 (UO-31 renal) | GI50 (SK-MEL-28 melanoma) | GI50 (T-47D breast) | TGI (T-47D breast) | GI50 (NCI-H522 lung) | GI50 (RXF 393 renal) |
| --- | --- | --- | --- | --- | --- | --- | --- | --- | --- | --- | --- | --- | --- | --- | --- | --- | --- | --- | --- | --- |
| CC(C)c1cc(OCC(O)CO)cc(C(C)C)c1 (configuration not stated) | > 100 µM | > 100 µM | > 100 µM | > 100 µM | > 100 µM | > 100 µM | > 100 µM | > 100 µM | – | – | – | – | – | – | – | – | – | – | – | – |
| O=S(=O)(NCCNc1nccc(-c2c(-c3ccc(F)cc3)nc3sccn23)n1)c1ccccc1 | – | > 100 µM | 61.7 µM | > 100 µM | – | > 100 µM | 39.8 µM | > 100 µM | 6.55 µM | 16.9 µM | 5.14 µM | > 100 µM | 22.4 µM | 2.31 µM | 1.83 µM | 9.36 µM | 1.79 µM | 27.3 µM | – | – |
| Nc1n[nH]c(CCc2nc(N)n[nH]2)n1 | > 100 µM | > 100 µM | > 100 µM | > 100 µM | > 100 µM | > 100 µM | > 100 µM | > 100 µM | – | – | – | – | – | – | – | – | – | – | – | – |
| O=C(Nc1ccc(Cl)c(Cl)c1)OCCN1c2ccccc2Sc2ccccc21 | – | > 10 µM | > 10 µM | > 10 µM | > 10 µM | > 10 µM | – | > 10 µM | – | – | – | > 10 µM | – | – | – | – | – | > 10 µM | – | – |
| O=C(CC1C(=O)Nc2ccccc2S1=O)Nc1ccc(Cl)cc1 (configuration not stated) | – | > 100 µM | > 100 µM | > 100 µM | > 100 µM | > 100 µM | > 100 µM | > 100 µM | – | – | – | – | – | – | – | – | – | – | – | – |
| O=C(/C=C1/Nc2ccc([N+](=O)[O-])cc2NC1O)c1cccc([N+](=O)[O-])c1 (configuration not stated) | 65.4 µM | > 100 µM | > 100 µM | > 100 µM | > 100 µM | > 100 µM | > 100 µM | > 100 µM | – | – | – | – | – | – | – | – | – | – | – | – |
| CC1(C)OC(=O)C=C([O-])O1.CC1(C)OC(=O)C=C([O-])O1.CC[O-].CC[O-].[Ti+4] | – | > 100 µM | > 100 µM | > 100 µM | > 100 µM | > 100 µM | > 100 µM | > 100 µM | > 100 µM | > 100 µM | – | – | > 100 µM | > 100 µM | > 100 µM | > 100 µM | – | – | > 100 µM | – |
| CCn1c2ccccc2c2cc(C(O)c3cccc4ncccc34)ccc21 (configuration not stated) | – | > 100 µM | 0.0787 µM | 15.7 µM | 0.107 µM | 1.66 µM | > 100 µM | > 100 µM | 0.0399 µM | 0.0279 µM | 0.0828 µM | 4.78 µM | 0.257 µM | 0.0357 µM | 0.285 µM | 3.47 µM | – | – | 0.0212 µM | 0.0518 µM |
| O=C1CC(c2ccc(Cl)cc2)Oc2ccccc21 (configuration not stated) | – | > 100 µM | 34.1 µM | 55 µM | – | 21.2 µM | > 100 µM | > 100 µM | – | – | – | > 100 µM | – | – | – | – | – | > 100 µM | – | – |
| CN(C)C(=S)/N=c1\ss/c(=N\S(=O)(=O)c2ccccc2)n1N(C)C | 85 µM | > 100 µM | > 100 µM | > 100 µM | 37.8 µM | – | > 100 µM | > 100 µM | – | – | – | – | – | – | – | – | – | – | – | – |
| COC(=O)CCC(=O)NC1C2CC3CC(C2)CC1C3 (configuration not stated) | > 100 µM | > 100 µM | > 100 µM | > 100 µM | > 100 µM | > 100 µM | > 100 µM | > 100 µM | – | – | – | – | – | – | – | – | – | – | – | – |
| COc1ccc(C2=CC(c3ccc(OC)c(OC)c3)c3c(c4ccccc4oc3=O)O2)cc1OC (configuration not stated) | – | > 100 µM | – | 4.97 µM | – | 31 µM | > 100 µM | > 100 µM | 1.19 µM | 2.32 µM | 1.73 µM | > 30.7 µM | 1.37 µM | 0.822 µM | 1.58 µM | – | 3.66 µM | > 100 µM | 1.44 µM | – |
| O=C(O)CCSC(=O)Nc1ccc(N=Nc2ccccc2)cc1 | > 100 µM | > 100 µM | > 100 µM | > 100 µM | – | > 100 µM | > 100 µM | > 100 µM | – | – | – | – | – | – | – | – | – | – | – | – |
| O=C1OC(CN2CCOCC2)CN1/N=C/c1ccc([N+](=O)[O-])o1 (configuration not stated) | – | > 100 µM | > 100 µM | – | 72.3 µM | > 100 µM | > 100 µM | > 100 µM | – | – | – | > 100 µM | – | – | – | – | – | > 100 µM | – | – |
| CCC(=O)N/N=C(\C=C\c1cccc(O)c1)c1sc(Nc2ccc(C)cc2[N+](=O)[O-])nc1C | > 100 µM | > 100 µM | > 100 µM | > 100 µM | > 100 µM | 40.6 µM | > 100 µM | > 100 µM | – | – | – | – | – | – | – | – | – | – | – | – |
| O=C(O)C1=C(C(=O)Nc2ccc(NC(=O)C3=C(C(=O)O)C4C=CC3C4)cc2)C2C=CC1C2 | > 100 µM | > 100 µM | > 100 µM | > 100 µM | – | > 100 µM | > 100 µM | > 100 µM | – | – | – | – | – | – | – | – | – | – | – | – |
| c1ccc(CNc2nc(Nc3ccccc3)nc3ccccc23)cc1 | 3.2 µM | – | – | 4.43 µM | 3.23 µM | 4.88 µM | 8.53 µM | 3.24 µM | – | – | 3.06 µM | 10.7 µM | 1.99 µM | 2.06 µM | 2.1 µM | 1.7 µM | 1.72 µM | 4.46 µM | 1.45 µM | 1.65 µM |
| CC12Oc3ccc4ccccc4c3CC1Cc1c(ccc3ccccc13)O2 (configuration not stated) | 59.8 µM | > 100 µM | > 100 µM | > 100 µM | > 100 µM | > 100 µM | > 100 µM | > 100 µM | – | – | – | – | – | – | – | – | – | – | – | – |
| COc1cc2c(c(OC3OC(CO)C(O)C(O)C3O)c1)C(=O)CC(c1ccc(O)cc1)O2 (configuration not stated) | – | > 100 µM | > 100 µM | > 100 µM | > 100 µM | > 100 µM | > 100 µM | > 100 µM | – | – | – | > 100 µM | – | – | – | – | – | > 100 µM | – | – |
| COC1=C2CC(C)CC(OC)C(O)C(C)/C=C(\C)C(OC(N)=O)C(OC)/C=C\C=C(/C)C(=O)NC(=C(/C=N/N3CCCCC3)C1=O)C2=O (configuration not stated) | 14.3 µM | 8.7 µM | 4.32 µM | 18.9 µM | 7.87 µM | 26.6 µM | 23.4 µM | 37 µM | – | – | – | 32.9 µM | – | – | – | – | – | – | – | – |
| O=C1NC(=O)C2C1N(Cc1ccccc1)C(=O)N2Cc1ccccc1 (configuration not stated) | > 100 µM | > 100 µM | > 100 µM | > 100 µM | > 100 µM | > 100 µM | > 100 µM | > 100 µM | – | – | – | – | – | – | – | – | – | – | – | – |
| c1ccc2c(c1)C1=NCCN1c1ccccc1-2 | 6.14 µM | 11.6 µM | 5.17 µM | 18.8 µM | 3.13 µM | 7.85 µM | 18.4 µM | 15.2 µM | – | – | – | – | – | – | – | – | – | – | – | – |
